Source: patent US20240368566A1, “PYK2-DERIVED PEPTIDES FOR INHIBITING INVADOPODIA-MEDIATED CANCER METASTASIS” (BAR-ILAN UNIVERSITY, priority 2023, published 2024)
“Also recorded” adds a separate entry of the source.

How the values were obtained:
[1] = system: interaction between Pyk2 and cortactin in invadopodia; experiment: Acceptor photobleaching FRET assay; format: cell-based, human; details: 0.1, 1, 5 μM peptide; mature matrix-degrading invadopodia
Experimental: Acceptor photobleaching experiments were performed as described in Genna et al., 2018 (supra). In brief, cortactin-TagRFP MDA-MB-231 cells were plated on Alexa 405 gelatin in a medium containing Pyk2-PRR or scrambled control peptides at 0.1, 1, and 5 μM concentration, fixed, and immunostained with pY402-Pyk2/Alexa Fluor 488-goat anti-rabbit (donor) and cortactin/Alexa Fluor 555-goat anti-mouse (acceptor). As a control, cells were stained with Tks5/Alexa Fluor 488-goat anti-rabbit (donor) and cortactin/Alexa Fluor 555-goat anti-mouse (acceptor). Co-localization of cortactin with degradation holes in Alexa 405-labeled gelatin was used to identify mature degrading invadopodia. For all FRET experiments, cells were imaged in PBS at room temperature on a laser-scanning inverted confocal microscope (Zeiss LSM780; 60×, NA 1.4, oil objective). A region of interest surrounding invadopodia was bleached using 100% 561-nm laser power (acceptor channel), and images were acquired in both the 488 nm and the 561 nm channels before and after bleaching. FRET efficiency was calculated as the E=1−(donor pre/donor post) in background-subtracted images and was corrected for fluctuations in laser power and donor bleaching in ImageJ.

MDA-MB-231 cells [2] = experiment: Invadopodium precursor formation assay; format: cell-based, human; details: 4 h, 0.1, 1 or 5 μM peptide
Experimental: The invadopodium precursor formation assay was performed as described in Genna et al., 2018 (supra). Briefly, gelatin was conjugated to Alexa 405 dye (Thermo Fisher Scientific). MatTek dishes were treated with 1 N HCl and coated with 50 μg/ml poly-L-lysine. A 0.2% gelatin solution was prepared in PBS, and a 1:20 mixture of Alexa 405-labeled gelatin/unlabeled gelatin was warmed to 37° C. before addition to the poly-L-lysine coated plates. Gelatin was cross-linked with 0.01% glutaraldehyde followed by quenching with 5 mg/ml sodium borohydride. 125,000 MDA-MB-231 cells were plated on Alexa 405-labeled gelatin plates in the presence of 0.1, 1, or 5 μM of Pyk2-PRR peptides or scrambled control for 4 h. At the end of incubation, cells were fixed in 3.7% paraformaldehyde, permeabilized with 0.1% Triton X-100, blocked with 1% FBS, 1% BSA in PBS, and labeled with anti-Tks5 and anti-cortactin. Images were acquired using an inverted fluorescent microscope (Leica AF6000; 63×, NA 1.4, oil objective, Leica LAS AF acquisition software) (Wetzlar, Germany) equipped with an ORCA-Flash 4.0 V2 digital CMOS camera (Hamamatsu Photonics, Shizuoka, Japan).

4T1 cells = experiment: Spontaneous lung metastasis clonogenic assay in 4T1 xenograft mouse model; format: in vivo, BALB/c female mice; details: 10 mg/kg once a day for eight days, intraperitoneal injection, HIV-TAT fused peptide; versus scrambled control
Experimental: All experimental procedures were conducted following the Federation of Laboratory Animal Science Association (FELSA) and were approved by the Bar-Ilan University animal use and care committee. Mouse xenograft tumors were generated by injecting 10^6 4T1 cells resuspended in 20% collagen I (BD Biosciences, Franklin Lakes, NJ, USA) in PBS into the lower-left mammary gland of 8-week-old BALB/c female mice. […] 4T1 cells have intrinsic resistance to 6-thioguanine, which enables precise quantification of metastatic cells, even when they are disseminated at sub-microscopic levels at distant organs, upon excision and digestion of selected organs. The clonogenic assay is based on a principle by which one colony represents one metastatic cell. Briefly, spontaneous lung metastasis was measured in BALB/c mice bearing orthotopic 4T1 tumors of equal size (1-1.2 cm in diameter). Lungs were excised and minced and plated in RPMI/10% FBS in the presence of 6-thioguanine to select for tumor cells only. Cells were plated in a 5% CO2 incubator at 37° C. for 14 days to form 4T1 colonies. On day 14 after plating, the medium was removed from dishes, and colonies were fixed in 4% paraformaldehyde for one hour at room temperature. Colonies were then stained in 2% crystal violet solution and thoroughly washed with PBS. Plates were allowed to air dry, and colonies in each plate were quantified. […]

MDA-MB-231 cells [3] = experiment: Barbed end formation assay; format: cell-based, human; details: EGF stimulation; all concentrations
Experimental: The barbed end assay was performed using biotin-conjugated actin as described in Genna et al., 2018 (supra). In brief, 24 h before each experiment, cells were plated on fibronectin/gelatin unlabeled matrix in the presence of Pyk2-PRR or control peptides at 0.1, 1, or 5 μM concentration and allowed to attach for 8 h. Cells were starved for 16 h in the presence of the peptides and then stimulated with 2.5 nM EGF and permeabilized with a permeabilization buffer (20 mM Hepes, pH 7.5, 138 mM KCl, 4 mM MgCl2, 3 mM EGTA, 0.2 mg/ml saponin, 1 mM ATP, and 1% BSA) containing 0.4 μM biotin-conjugated muscle actin (AB07) (Cytoskeleton Inc., Denver, CO, USA) for 1 min at 37° C. Cells were fixed in 3.7% paraformaldehyde for 5 min, blocked in PBS containing 1% FBS, 1% BSA, and 3 μM un-labeled phalloidin (Molecular Probes, P3457), then labeled with FITC anti-biotin (200-092-211) (Jackson ImmunoResearch Laboratories, West Grove, PA, USA) to visualize barbed ends, and with rhodamine-phalloidin (R415) (Molecular Probes, Eugene, OR, USA) and Arp2 to identify regions of cells rich in invadopodia. The barbed end intensity at invadopodia-rich regions was quantified by measuring mgv at invadopodia-rich areas minus mgv of the background. Data were normalized to the control condition for each experiment.

C[C@H](NC(=O)[C@@H](N)[C@@H](C)O)C(=O)N[C@@H](Cc1ccccc1)C(=O)N[C@@H](CCC(N)=O)C(=O)N[C@@H](CCC(=O)O)C(=O)N1CCC[C@H]1C(=O)N1CCC[C@H]1C(=O)N1CCC[C@H]1C(=O)N[C@@H](CCCCN)C(=O)N1CCC[C@H]1C(=O)N[C@@H](CO)C(=O)N[C@@H](CCCNC(=N)N)C(=O)N1CCC[C@H]1C(=O)N[C@@H](CCCCN)C(=O)N[C@@H](Cc1ccc(O)cc1)C(=O)N[C@@H](CCCNC(=N)N)C(=O)N1CCC[C@H]1C(=O)N1CCC[C@H]1C(=O)N1CCC[C@H]1C(=O)O [Pyk2-PRR2, TAFQEPPPKPSRPKYRPPP]
interaction between Pyk2 and cortactin in invadopodia (FRET) [1]: significantly inhibited
mature, matrix-degrading invadopodia (MDA-MB-231 cells [2]; co-localization with degradation regions): significant decrease
immature invadopodium precursors (MDA-MB-231 cells [2]; cortactin and Tks5 co-localization): significant increase
lung metastases (6-thioguanine-resistant colonies) (4T1 cells): significantly fewer lung metastases; also recorded: can suppress in vivo breast tumor metastasis; also recorded: significantly inhibited lung metastasis
generation of free actin barbed ends at invadopodia (MDA-MB-231 cells [3]): completely disrupted
